Laboratory results as given in ChEMBL document CHEMBL1121896, “Potential histamine H2-receptor blockers. 3- and 2-indole derivatives as immobile analogues of tautomeric forms of cimetidine” (J Med Chem, 1981).
The source made the active and inactive calls. No cut-off for these calls is given here.

Experiments:
[1] = biological target: Histamine H2 receptor (Cavia porcellus) (UniProt P47747); assay: Ratio of potency (3*10e-5M) to that of agonist for histamine H2 receptor, in an assay for guinea pig atria chronotropic response; assay type: functional
[2] = biological target: Histamine H2 receptor (Cavia porcellus) (UniProt P47747); assay: Competitive antagonism of compound at histamine H2 receptor compared to 4-methylhistamine as effect on resting heart rate in guinea pig atria expressed as potency ratio; Inactive; assay type: functional, tissue-based
[3] = biological target: Histamine H2 receptor (Cavia porcellus) (UniProt P47747); assay: Competitive antagonism of compound at histamine H2 receptor compared to 4-methylhistamine induced chronotropic response in guinea pig atria expressed as potency ratio; Not significantly greater than 1.0 (Inactive); assay type: functional
[4] = biological target: Histamine H2 receptor (Cavia porcellus) (UniProt P47747); assay: Ratio of potency (3*10e-5M) to that of agonist for Histamine H2 receptor, in an assay for guinea pig atria chronotropic response; assay type: functional
[5] = biological target: Histamine H2 receptor (Cavia porcellus) (UniProt P47747); assay: Competitive antagonism of compound at histamine H2 receptor compared to 4-methylhistamine induced chronotropic response in guinea pig atria; + Potency ratio greater than 1.0; assay type: functional
[6] = biological target: Histamine H2 receptor (Cavia porcellus) (UniProt P47747); assay: Competitive antagonism of compound at histamine H2 receptor compared to 4-methylhistamine as effect on resting heart rate in guinea pig atria expressed as potency ratio; (Inactive); assay type: functional, tissue-based
[7] = biological target: Histamine H2 receptor (Cavia porcellus) (UniProt P47747); assay: Competitive antagonism of compound at histamine H2 receptor compared to 4-methylhistamine induced chronotropic response in guinea pig atria; nonparallel shift in dose response curve; assay type: functional; details: filed as antagonist

Sequence of Histamine H2 receptor (Cavia porcellus) (P47747 whole entry): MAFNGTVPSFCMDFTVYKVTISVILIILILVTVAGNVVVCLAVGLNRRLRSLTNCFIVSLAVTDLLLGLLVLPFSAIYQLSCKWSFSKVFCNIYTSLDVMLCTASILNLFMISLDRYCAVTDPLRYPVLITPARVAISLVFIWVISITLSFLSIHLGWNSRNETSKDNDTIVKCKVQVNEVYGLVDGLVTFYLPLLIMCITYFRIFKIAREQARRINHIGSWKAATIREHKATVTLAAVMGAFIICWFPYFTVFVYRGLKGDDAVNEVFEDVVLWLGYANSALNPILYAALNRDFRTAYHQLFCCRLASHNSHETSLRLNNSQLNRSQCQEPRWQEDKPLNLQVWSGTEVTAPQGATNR

S=C(NCCSCc1cc2ccccc2[nH]1)Nc1ccccc1
Potency ratio [1]: 2.54
Antagonism [2]: inactive

C/N=C(\NC#N)NCCSCc1c[nH]c2ccccc12
Potency ratio [1]: 0.84
Antagonism [3]: inactive

S=C(NCCSCc1c[nH]c2ccccc12)Nc1ccccc1
Potency ratio [4]: 1.16
Antagonism [3]: inactive

CS/C(=N\CCSCc1c[nH]c2ccccc12)NC#N
Potency ratio [1]: 2.56
Antagonism [5]: > 1

CN/C(=N\CCSCc1nc[nH]c1C)NC#N
Potency ratio [1]: 36.8
Antagonism [5]: > 1

C/N=C(\S)NCCSCc1c[nH]c2ccccc12
Potency ratio [1]: 1.06
Antagonism [3]: > 1

C/N=C(\S)NCCSCc1cc2ccccc2[nH]1
Potency ratio [1]: 3.35
Antagonism [5]: > 1

C/N=C(\NC#N)NCCSCc1cc2ccccc2[nH]1
Potency ratio [1]: 1.76
Antagonism [6]: inactive

CS/C(=N\CCSCc1cc2ccccc2[nH]1)NC#N
Potency ratio [1]: 6.04
Antagonism [7]: Non-competitive antagonist
